Measured values reported in US20200330447A1, “CANCER TREATMENT VIA REPOSITIONED TRICYCLIC ANTI-DEPRESSANT-LIKE DRUGS AS ANTI-CANCER AGENTS AND NEW COMBINATIONS OF SUCH DRUGS” (Board of Supervisors of Louisiana State University and …, priority 2015, published 2020).
Structures can show the parent of a compound that is named as a salt.

How the values were obtained:
Type in all cases: cell-based
[1] = system: DU145 prostate cancer cells; assay: High content imaging-based screen (Cellomics) for lysosome migration inhibitors; conditions: 16 hours; for hit in screen for lysosome migration inhibitors (mean ring spot count): pH 6.4 media, 2 micrograms per ml
Procedure: DEVELOPMENT OF A HIGH CONTENT IMAGING-BASED SCREEN: The followings process was followed to identify chemicals that were lysosome migration inhibitors. DU145 prostate cancer cells were seeded in 96 well flat bottom black walled plates at 4,500 cells per well. All compounds and controls were exposed to RPMI bicarbonate buffered media (pH 6.4). RPMI buffered media titrated at pH of 6.4-6.8 was added to column 12 after the media was removed and serves as negative control (low acidic pH so lysosomes move out). […] The 4 compound libraries chosen to screen were the NIH Clinical Collection (450 drugs), Prestwick (1200 drugs), Prestwick phytochemical and the Green Pharma collection (xx drugs). Compounds were diluted with buffered RPMI media to 2 micrograms per ml concentrations. Individual compounds to be screened were added robotically as a single compound per well through columns 2-11. Plates were incubated at 37 degrees in 5% CO2 for 16 hours then the medium was removed and the cells were fixed with 4% cold paraformaldehyde (Sigma-Aldrich) for 20 minutes at 4 degrees. Fixed cells were washed once with PBS. To stain lysosomes, cells were incubated for 1 hour with LAMP1 antibody (H4A3) diluted in BSP (containing 0.25% BSA and 0.1% saponin in PBS) at 1/200. Cells were then washed with PBS 3 times then incubated for 1 hour with Dylight Donkey anti-mouse diluted at 1/200 in BSP. To stain the nucleus, cells were then washed with PBS 3 times and incubated for 20 minutes with 1×DAPI diluted in PBS. DAPI was washed off with PBS and cells were maintained in PBS for the duration of the screening process. Plates were mounted and read in a Cellomics Arrayscan automated fluorescence imager. The Cellomics platform allows for high content throughput screening by combining fluorescence microscopy with a multi-parameter image analysis. Cells were photographed using 20× objective in 2 fluorescent channels. A total of 15 different fields in each well, and at least 300 cells were imaged per well. The biocompartmental analysis algorithm was used to identify each cell by its nucleus (channel 1 recognized by the DAPI stain) and to generate a cytoplasmic mask (ring) of 12 pixels width in which the inner ring was 6 pixels away from the nucleus. The algorithm calculates the number of lysosomes inside the ring as indicated by fluorescent LAMP-1 positive puncta in channel 2 as a mean ring spot count. Therefore, when lysosomes move away from the nucleus and disperse throughout the cytoplasm, the number of spots representing lysosomes inside the cytoplasmic ring increases (low pH conditions). By contrast, lysosomes cluster near the nucleus the numbers of spot inside the cytoplasmic ring decreases (EIPA treated).
Z′-factor is a simple statistical coefficient used to assess performance and quality of the assay in high-throughput screening. It is calculated with the formula: Z′=1-(3σct+3σcb)/|μct−μcb|, where p indicates mean, a represents standard deviation, “ct” indicates the positive control, “cb” indicates the negative control. […] If the Z′ is more than 0.5, the assay is considered to be high quality assay.
The Z′ factor of the assay was determined from the EIPA (positive control) and low pH (negative control). Experiments were run in duplicate. Only plates with positive Z′ factor was used for analysis.

A172 glioblastoma cells = assay: Acidic media pH induced lysosome distribution, LAMP-1 IF imaging; conditions: EIPA, low pHe media
Procedure: A172 glioblastoma cells were treated overnight with 5 or 10 μM deptropine or pizotifen or with the deptropine or pizotifen in combination at 5 μM concentration. The next day, media was change to low pHe media containing deptropine or pizotifen and the cells were incubated for an additional 2 h. EIPA is a known inhibitor of lysosomal outward movement and represents the positive control. At the end of the incubation time, cells were fixed and stained for LAMP-1, filamentous actin and nuclei. Representative merged IF images depicting the effect of pHe 7.4, pHe 6.4, DMSO or deptropine and pizotifen on the distribution of lysosomes in A172 glioblastoma cells. On color versions of the Figure, red puncta are lysosomes, blue is nuclei and green is actin. As could be seen, lysosomes appear more peripherally distributed in A172 glioma cells than in cells treated with concentrations of 5 to 10 micromolar deptropine or pizotifen.
Cells were treated as described above with FIG. 2 but included a concentration of 0.1 micromolar and 1 micromolar deptropine and pizotifen.
Turning to FIG. 7, an additional aspect of this technology is how quickly deptropine and pizotifen act to move lysosomes towards the nucleus. […] A172 glioblastoma cells were treated with the 5 or 10 μM deptropine or pizofifen for 2 h and then with low pHe media containing the drugs for an additional 2 hours. At the end of incubation time, cells were fixed and stained for LAMP-1, filamentous actin, and nuclei. Representative merged IF images depicting the effect of DMSO, 5 and 10 μM deptropine or pizotifen upon 4 hours on the distribution of lysosomes, colored red in color images, in A172 glioblastoma cells. Also shown in color images are actin, colored green, and nuclei, colored blue.

Erk signaling pathway = assay: Lysosome inward movement in the presence of the MAPK inhibitor U0126, and Erk western blot; conditions: deptropine and pizotifen 5 μM, 4 hours, A172 cells
Procedure: Turning to FIG. 8, deptropine and pizotifen are shown to act through the Erk signaling pathway. In this experiment, A172 cells were treated with deptropine and pizotifen at 5 μM concentrations for 4 hours in the presence of the MAPK inhibitor U0126. I.F. microscopy was then performed. This helped allow the determination of the mechanism of action of deptropine and pizotifen.

Row | Molecule | hit in screen for lysosome migration inhibitors (mean ring spot count) [1] | further results
1 | CCN(c1nc(N)c(C(=O)NC(=N)N)nc1Cl)C(C)C [EIPA] |  | lysosome position, positive control ([1]; EIPA 25 uM): lysosomes near the nucleus; acidic media induced lysosome redistribution, positive control (A172 glioblastoma cells): prevented lysosome redistribution and induced clustering of lysosomes around the nucleus
2 | N#CC(=C(/N)Sc1ccccc1N)/C(C#N)=C(\N)Sc1ccccc1N [U0126] |  | effect of U0126 on inward movement of lysosomes induced by deptropine and pizotifen (Erk signaling pathway): prevents the action of deptropine and pizotifen
3 | CCCSc1ccc2nc(NC(=O)OC)[nH]c2c1 [albendazole] | hits | 
4 | COc1cc2c(c(OC)c1OC)-c1ccc(OC)c(=O)cc1[C@@H](NC(C)=O)CC2 [colchicine] | hits | 
5 | CC(C)[C@@]1(NC(=O)[C@@H]2C[C@@H]3c4cccc5[nH]cc(c45)C[C@H]3N(C)C2)O[C@@]2(O)[C@@H]3CCCN3C(=O)[C@H](Cc3ccccc3)N2C1=O [dihydroergocristine mesylate, (5′α,10α)-9,10-Dihydro-12′-hydroxy-2′-(1-methylethyl)-5′-(phenylmethyl)-ergotaman-3′, 6′, 18-trione mesylate] | hits | 
6 | COC(=O)Nc1nc2ccc(Sc3ccccc3)cc2[nH]1 [fenbendazole] | hits | 
7 | COc1ccc2c(c1)[nH]c1c(C)nccc12 [harmine] | hit | 
8 | COC(=O)Nc1nc2ccc(C(=O)c3ccccc3)cc2[nH]1 [mebendazole] | hits | 
9 | OC(c1cc(C(F)(F)F)nc2c(C(F)(F)F)cccc12)C1CCCCN1 (stereo not drawn) [mefloquine, [(R*,S*)-2,8-bis(trifluoromethyl)quinolin-4-yl]-(2-piperidyl)methanol] | hit | 
10 | O=C(Nc1ccc([N+](=O)[O-])cc1Cl)c1cc(Cl)ccc1O [niclosamide] | hits | 
11 | CC(=O)O[C@H]1C(=O)[C@@]2(C)[C@H]([C@H](OC(=O)c3ccccc3)[C@]3(O)C[C@H](OC(=O)[C@H](O)[C@@H](NC(=O)c4ccccc4)c4ccccc4)C(C)=C1C3(C)C)[C@]1(OC(C)=O)CO[C@@H]1C[C@@H]2O [paclitaxel] | hits | 
12 | COc1cc([C@@H]2c3cc4c(cc3[C@H](O)[C@H]3COC(=O)[C@H]23)OCO4)cc(OC)c1OC [podophyllotoxin] | hits | 
13 | O=C(c1ccc(OCCN2CCCCC2)cc1)c1c(-c2ccc(O)cc2)sc2cc(O)ccc12 [raloxifene] | hits | 
14 | CC[C@]1(O)C[C@H]2CN(CCc3c([nH]c4ccccc34)[C@@](C(=O)OC)(c3cc4c(cc3OC)N(C=O)[C@H]3[C@@](O)(C(=O)OC)[C@H](OC(C)=O)[C@]5(CC)C=CCN6CC[C@]43[C@@H]65)C2)C1 [vincristine] | hits | 
15 | CC[C@]1(O)C[C@@H]2CN(CCc3c([nH]c4ccccc34)[C@@](C(=O)OC)(c3cc4c(cc3OC)N(C)[C@H]3[C@@](O)(C(N)=O)[C@H](O)[C@]5(CC)C=CCN6CC[C@]43[C@@H]65)C2)C1 [vindesine] | hits | 
16 | CCC1=C[C@@H]2CN(C1)Cc1c([nH]c3ccccc13)[C@@](C(=O)OC)(c1cc3c(cc1OC)N(C)[C@H]1[C@@](O)(C(=O)OC)[C@H](OC(C)=O)[C@]4(CC)C=CCN5CC[C@]31[C@@H]54)C2 [vinorelbine] | hits | 
17 | dihydroergotoxine mesylate | hits | 
